Like-named read-outs stand apart in the source and are kept apart here.
Columns and labels:
HIV-1 clinical isolates = assay: Antiviral assay against HIV-1 clinical isolates in fresh human PBMCs (RT endpoint)
HCV 1b Replicon = assay: Anti-HCV activity, HCV 1b replicon; conditions: Hepatitis C virus, Huh-7
Influenza B/LEE/40 = assay: microbe, parasite or virus in culture; format: cell-based; conditions: NHBE
HIV-1 IIIb [1] = tested on: HIV-1 IIIb
Description: Each compound series was prepared several times independently in quadruplicate to capture the variations in Hill slope associated with preparation of compound serial dilutions. The assay was performed in a 384-well format. MT-4 cells were infected in bulk at the same MOI as that described above, and the plates were developed with CellTiter-Glo reagent 5 days postinfection.

RSV strain A2 = assay: microbe, parasite or virus in culture; format: cell-based, respiratory syncytial virus; conditions: human respiratory syncytial virus, HEp-2
HBV Production = assay: microbe, parasite or virus in culture; conditions: Hepatitis B virus
[2] = tested on: inhibitor-selected HIV-1 IIIb passages; assay: Phenotypic profile of selected HIV-1 passages; format: cell-based; conditions: Human immunodeficiency virus 1, IIIB
[3] = tested on: INSTI-resistant HIV-1 mutants (HXB2); assay: microbe, parasite or virus in culture; format: cell-based
HIV-1 IIIb [4] = assay: Antiviral assay in MT-2 cells; format: cell-based
Description: (§1) For the antiviral assay utilizing MT-2 and MT-4 cells, 50 μl of a 2× test concentration of 5-fold serially diluted compound in culture medium with 10% FBS was added to each well of a 96-well plate (9 concentrations) in triplicate. MT-2 and MT-4 cells were infected with HIV-1 IIIb at a multiplicity of infection (MOI) of 0.01 for 3 h. Fifty microliters of infected cell suspension in culture medium with 10% FBS (∼1.5 × 10^4 cells) then was added to each well containing 50 μl of diluted compound. The plates were then incubated at 37°C for 5 days. After 5 days of incubation, 100 μl of CellTiter-Glo reagent (Promega Biosciences, Inc., Madison, WI) was added to each well containing MT-2 or MT-4 cells. Cell lysis was carried out by incubation at room temperature for 10 min and chemiluminescence was read. For compound cytotoxicity assessment, the protocol was identical except that uninfected cells were used and compounds were serially diluted 3-fold.

in vitro [5] = conditions: human, 6 days
Description: Freshly isolated human peripheral blood mononuclear cells (PBMCs) were obtained from healthy volunteers (supplied by AllCells, Inc., Alameda, CA). Blood donors were negative for HIV-1, hepatitis B, and hepatitis C viral infections. CD4^+ T lymphocytes were isolated by negative selection using a magnetically labeled antibody cocktail ([sequence] Technologies Inc., Vancouver, Canada) and cultured in RPMI cell culture media (Life Technologies, Grand Island, NY) supplemented with 10% FBS. CD4^+ T cells were activated for 48 h at 37°C by addition of 1 μg/ml phytohemagglutinin (PHA; Sigma, St. Louis, MO) and 5 ng/ml interleukin-2 (IL-2; Roche Diagnostics, Indianapolis, IN). […] Human PBMCs were used for cytotoxicity assays after culturing for 48 h in either complete RPMI medium alone (resting conditions) or RPMI containing 1 μg/ml PHA and 5 ng/ml IL-2 (activated conditions).

HIV-1 BaL [6] = assay: Antiviral assay in primary CD4+ T lymphocytes (p24 ELISA); conditions: Human immunodeficiency virus 1, BAL
Description: (§2) Freshly isolated human peripheral blood mononuclear cells (PBMCs) were obtained from healthy volunteers (supplied by AllCells, Inc., Alameda, CA). Blood donors were negative for HIV-1, hepatitis B, and hepatitis C viral infections. CD4^+ T lymphocytes were isolated by negative selection using a magnetically labeled antibody cocktail ([sequence] Technologies Inc., Vancouver, Canada) and cultured in RPMI cell culture media (Life Technologies, Grand Island, NY) supplemented with 10% FBS. CD4^+ T cells were activated for 48 h at 37°C by addition of 1 μg/ml phytohemagglutinin (PHA; Sigma, St. Louis, MO) and 5 ng/ml interleukin-2 (IL-2; Roche Diagnostics, Indianapolis, IN).
(§3) A 3-fold serial dilution of test compounds in RPMI medium was added to triplicate wells and incubated at 37°C for 5 days. Human monocytes were seeded on 96-well plates at a density of 3 × 10^5 cells per well, differentiated into adherent macrophages, and then infected with HIV-1 BaL virus in 50 μl RPMI for 3 h at 37°C. […] The supernatants derived from the CD4^+ T-cell and macrophage cultures were harvested 6 and 12 days postinfection, respectively, and the amount of HIV present was quantified by p24 enzyme-linked immunosorbent assay (ELISA) (PerkinElmer, Waltham, MA).

[7] = tested on: NRTI-, NNRTI- and PI-Resistant HIV-1 Mutants; assay: Antiviral activity against NRTI-, NNRTI- and PI-resistant HIV-1 mutants; format: cell-based; conditions: Human immunodeficiency virus 1; WT, Table S7
[8] = tested on: HRV (mixture of HRV1A, HRV14, HRV16); assay: microbe, parasite or virus in culture; format: cell-based; conditions: Human rhinovirus sp., H1-HeLa
[9] = Cytotoxicity assay in MT-2 cells; format: cell-based; conditions: human, uninfected MT-2 cells
Description: as §1

HIV-1 BaL [10] = assay: Antiviral assay in monocyte-derived macrophages (p24 ELISA); conditions: Human immunodeficiency virus 1, BAL, Macrophage
Description: as §2, §3

HIV-1 IIIb [11] = assay: Antiviral assay in MT-4 cells; format: cell-based; conditions: Human immunodeficiency virus 1, MT4, 120 h, 5 days
Description: as §1

HCV 2a Replicon = assay: Anti-HCV activity, HCV 2a replicon; conditions: Hepatitis C virus, Huh-7
in vitro [12] = conditions: human, CC50 in Primary Human Hepatocytes
HIV-1 BaL [13] = conditions: primary CD4+ T-cells, 35 days, drug at tissue culture equivalent clinical Cmin (FTC 160 × EC50)
HIV-2 CDC 310319 = assay: Antiviral assay against HIV-2 isolate in fresh human PBMCs (RT endpoint); conditions: Human immunodeficiency virus 2, PBMC

Structure (SMILES): C[C@@H]1CCO[C@H]2Cn3cc(C(=O)NCc4ccc(F)cc4F)c(=O)c(O)c3C(=O)N12 [DTG, Dolutegravir]
- EC50 (HIV-1 clinical isolates; Human immunodeficiency virus 1, BAL, PBMC, HIV-1 subtype B isolate BaL, human PBMCs): 0.32 ± 0.11 nM
- EC50 (HIV-1 clinical isolates; Human immunodeficiency virus 1, PBMC, HIV-1 subtype A isolate 92RW016, human PBMCs): 0.34 ± 0.09 nM
- EC50 (HIV-1 clinical isolates; Human immunodeficiency virus 1, PBMC, HIV-1 subtype A isolate 92UG037, human PBMCs): 0.66 ± 0.05 nM
- EC50 (HIV-1 clinical isolates; Human immunodeficiency virus 1, PBMC, HIV-1 subtype B isolate 89BZ_167, human PBMCs): 1.4 ± 0.4 nM
- EC50 (HIV-1 clinical isolates; Human immunodeficiency virus 1, PBMC, HIV-1 subtype B isolate 91US001, human PBMCs): 0.8 ± 0.48 nM
- EC50 (HIV-1 clinical isolates; Human immunodeficiency virus 1, PBMC, HIV-1 subtype B isolate 91US004, human PBMCs): 1 ± 0.4 nM
- EC50 (HIV-1 clinical isolates; Human immunodeficiency virus 1, PBMC, HIV-1 subtype C isolate 93IN905, human PBMCs): 0.17 ± 0.03 nM
- EC50 (HIV-1 clinical isolates; Human immunodeficiency virus 1, PBMC, HIV-1 subtype C isolate 98US_MSC5016, human PBMCs): 0.75 ± 0.09 nM
- EC50 (HIV-1 clinical isolates; Human immunodeficiency virus 1, PBMC, HIV-1 subtype D isolate 98UG_57128, human PBMCs): 0.32 ± 0.48 nM
- EC50 (HIV-1 clinical isolates; Human immunodeficiency virus 1, PBMC, HIV-1 subtype E isolate 96TH_M02138, human PBMCs): 0.11 ± 0.01 nM
- EC50 (HIV-1 clinical isolates; Human immunodeficiency virus 1, PBMC, HIV-1 subtype E isolate 96TH_NI1046, human PBMCs): 0.25 ± 0.08 nM
- EC50 (HIV-1 clinical isolates; Human immunodeficiency virus 1, PBMC, HIV-1 subtype F isolate 93BR020, human PBMCs): 0.4 ± 0.19 nM
- EC50 (HCV 1b Replicon): > 44 µM
- EC50 (Influenza B/LEE/40): 15.1 µM
- PAEC95 (protein binding-adjusted EC95) (HIV-1 IIIb [1]; EC95 in MT-4 with human serum shift): 204 nM
- EC95 (HIV-1 IIIb [1]; MT-4 cells, calculated using Hill slope): 7.4 nM
- EC50 (RSV strain A2): > 50 µM
- EC50 (HBV Production): > 50 µM
- EC50 ([2]; 480 h, selected virus EVG P2 (day 20, 7.2 nM)): 5.4 nM
- EC50 ([2]; HIV-1-IIIb (unselected)): 2.5 nM
- EC50 ([2]; selected virus BIC P3 (day 47, 6 nM)): 3.6 nM
- EC50 ([2]; selected virus BIC P5 (day 71, 12 nM)): 6.4 nM
- EC50 ([2]; selected virus BIC P6 (day 86, 24 nM)): 8.3 nM
- EC50 ([2]; selected virus BIC P8 (day 156, 96 nM)): 12 nM
- EC50 ([2]; selected virus BIC P9 (day 181, 192 nM)): 19.1 nM
- EC50 ([2]; selected virus BIC P10 (day 234, 384 nM)): 14.7 nM
- EC50 ([2]; selected virus DTG P3Lo (day 59, 6.4 nM)): 3.2 nM
- EC50 ([2]; selected virus DTG P4 (day 87, 9.6 nM)): 7.8 nM
- EC50 ([2]; selected virus DTG P5 (day 97, 14.4 nM)): 10.3 nM
- EC50 ([2]; selected virus DTG P7 (day 139, 32.4 nM)): 12.4 nM
- EC50 ([2]; selected virus DTG P9 (day 174, 72.9 nM)): 15.6 nM
- EC50 ([2]; selected virus DTG P10 (day 202, 109.4 nM)): 19.7 nM
- EC50 ([2]; selected virus EVG P4 (day 41, 28.8 nM)): 7.1 nM
- EC50 ([2]; selected virus EVG P6 (day 56, 115 nM)): 7.1 nM
- EC50 ([2]; selected virus EVG P7 (day 67, 230 nM)): 8.1 nM
- EC50 ([2]; selected virus EVG P9 (day 94, 922 nM)): 6.6 nM
- EC50 ([2]; selected virus EVG P10 (day 119, 1843 nM)): 3.5 nM
- EC50 ([3]; Human immunodeficiency virus 1, HXB2, IN mutant E92Q): 1.8 ± 0.5 nM
- EC50 ([3]; Human immunodeficiency virus 1, HXB2, IN mutant E92Q/N155H): 2.8 ± 0.6 nM
- EC50 ([3]; Human immunodeficiency virus 1, HXB2, IN mutant E138K/Q148K): 13.7 ± 2.1 nM
- EC50 ([3]; Human immunodeficiency virus 1, HXB2, IN mutant G140S/Q148R): 6.5 ± 1.2 nM
- EC50 ([3]; Human immunodeficiency virus 1, HXB2, IN mutant M50I (BIC/DTG selection)): 2 ± 0.2 nM
- EC50 ([3]; Human immunodeficiency virus 1, HXB2, IN mutant M50I/R263K (BIC selection)): 3.6 ± 0.5 nM
- EC50 ([3]; Human immunodeficiency virus 1, HXB2, IN mutant M50I/S119R/R263K (DTG selection)): 6.2 ± 2.4 nM
- EC50 ([3]; Human immunodeficiency virus 1, HXB2, IN mutant N155H): 2.4 ± 0.6 nM
- EC50 ([3]; Human immunodeficiency virus 1, HXB2, IN mutant N155H/Q148R): 4.7 ± 1.5 nM
- EC50 ([3]; Human immunodeficiency virus 1, HXB2, IN mutant Q148R): 1 ± 0.3 nM
- EC50 ([3]; Human immunodeficiency virus 1, HXB2, IN mutant R263K (BIC/DTG selection), Table 7): 3.6 ± 0.4 nM
- EC50 ([3]; Human immunodeficiency virus 1, HXB2, IN mutant R263K, Table 6): 2.5 ± 0.4 nM
- EC50 ([3]; Human immunodeficiency virus 1, HXB2, IN mutant S119R (DTG selection)): 2.1 ± 0.7 nM
- EC50 ([3]; Human immunodeficiency virus 1, HXB2, IN mutant S119R/R263K (DTG selection)): 3.6 ± 0.8 nM
- EC50 ([3]; Human immunodeficiency virus 1, HXB2, IN mutant S153Y (DTG selection)): 4 ± 1.1 nM
- EC50 ([3]; Human immunodeficiency virus 1, HXB2, IN mutant S153Y/R263K (DTG selection)): 6.4 ± 0.8 nM
- EC50 ([3]; Human immunodeficiency virus 1, HXB2, IN mutant Y143R): 1.9 ± 0.5 nM
- EC50 ([3]; Human immunodeficiency virus 1, HXB2, WT (HXB2), Table 6, read-out: EC50): 1.4 ± 0.3 nM
- levels of resistance of double IN mutants ([3]; {}): 2.1-10 fold
- EC50 (HIV-1 IIIb [4]; Human immunodeficiency virus 1, IIIB, MT2, Table S9 footnote b, read-out: EC50 previously determined (start of resistance selection at twice the EC50)): 1.6 nM
- EC50 (HIV-1 IIIb [4]; Human immunodeficiency virus 1, MT2, 120 h, MT-2 cells, HIV-1 IIIb, 5 days, read-out: EC50): 1.5 ± 0.2 nM
- CC50 (in vitro [5]; CC50, Activated PBMCs (IL-2/PHA 2 days)): 23.9 µM
- CC50 (in vitro [5]; CC50, Resting PBMCs): 30.6 µM
- EC50 (HIV-1 BaL [6]): 1 ± 0.3 nM
- EC50 [7]: 1.6 ± 0.5 nM
- EC50 [8]: > 50 µM
- CC50 at 5 days [9]: 5.35 µM
- EC50 (HIV-1 BaL [10]): 3.1 ± 2.5 nM
- EC50 (HIV-1 IIIb [11]): 1.5 ± 0.3 nM
- EC50 (HCV 2a Replicon): > 44 µM
- CC50 (in vitro [12]; Donor 1): > 100 µM
- CC50 (in vitro [12]; Donor 2): > 100 µM
- Frequency of Viral Breakthrough with RAMs (HIV-1 BaL [13]): 0%
- p24+ Wells (HIV-1 BaL [13]): 0/24
- EC50 (HIV-2 CDC 310319): 2.5 ± 0.5 nM

From paper PMC5118987 (Antimicrobial Agents and Chemotherapy, 2016)
